{"source": "ChEMBL document CHEMBL4507297", "about": "“Data for DCP probe PF-04457845” (2021)", "key": {"[1]": {"target": "Wee1-like protein kinase 2 (Homo sapiens) (UniProt P0C1S8)", "settings": "Compound concentration 1000.0 nM"}, "[2]": {"target": "Serine/threonine-protein kinase tousled-like 1 (Homo sapiens) (UniProt Q9UKI8)", "settings": "Compound concentration 1000.0 nM"}, "[3]": {"target": "Serine/threonine-protein kinase mTOR (Homo sapiens) (UniProt P42345)", "settings": "Compound concentration 1000.0 nM"}, "[4]": {"target": "MAP/microtubule affinity-regulating kinase 4 (Homo sapiens) (UniProt Q96L34)", "sequence (Q96L34 whole entry)": "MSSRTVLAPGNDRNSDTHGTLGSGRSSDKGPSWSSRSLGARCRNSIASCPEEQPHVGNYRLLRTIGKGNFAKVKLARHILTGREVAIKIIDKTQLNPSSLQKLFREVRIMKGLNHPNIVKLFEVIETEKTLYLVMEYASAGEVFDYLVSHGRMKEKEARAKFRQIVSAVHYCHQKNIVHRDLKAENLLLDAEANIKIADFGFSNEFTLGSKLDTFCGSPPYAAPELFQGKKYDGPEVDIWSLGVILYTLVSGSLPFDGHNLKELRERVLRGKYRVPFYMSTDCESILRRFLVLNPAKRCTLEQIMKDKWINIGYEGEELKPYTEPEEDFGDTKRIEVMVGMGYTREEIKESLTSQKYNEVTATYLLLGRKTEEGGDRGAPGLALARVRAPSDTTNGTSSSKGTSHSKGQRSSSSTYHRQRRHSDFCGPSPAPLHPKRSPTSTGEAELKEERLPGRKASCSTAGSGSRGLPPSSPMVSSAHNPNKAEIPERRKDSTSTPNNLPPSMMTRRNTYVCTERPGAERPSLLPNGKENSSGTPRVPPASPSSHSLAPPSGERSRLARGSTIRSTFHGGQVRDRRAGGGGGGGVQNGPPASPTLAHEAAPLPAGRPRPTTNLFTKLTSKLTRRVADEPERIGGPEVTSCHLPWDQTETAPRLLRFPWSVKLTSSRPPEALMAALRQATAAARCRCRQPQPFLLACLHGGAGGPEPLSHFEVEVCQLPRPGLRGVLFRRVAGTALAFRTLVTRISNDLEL", "settings": "Compound concentration 1000.0 nM"}, "[5]": {"target": "T1, Muscarinic acetylcholine receptor M2 (Homo sapiens) (UniProt P08172)", "T1 sequence (whole entry)": "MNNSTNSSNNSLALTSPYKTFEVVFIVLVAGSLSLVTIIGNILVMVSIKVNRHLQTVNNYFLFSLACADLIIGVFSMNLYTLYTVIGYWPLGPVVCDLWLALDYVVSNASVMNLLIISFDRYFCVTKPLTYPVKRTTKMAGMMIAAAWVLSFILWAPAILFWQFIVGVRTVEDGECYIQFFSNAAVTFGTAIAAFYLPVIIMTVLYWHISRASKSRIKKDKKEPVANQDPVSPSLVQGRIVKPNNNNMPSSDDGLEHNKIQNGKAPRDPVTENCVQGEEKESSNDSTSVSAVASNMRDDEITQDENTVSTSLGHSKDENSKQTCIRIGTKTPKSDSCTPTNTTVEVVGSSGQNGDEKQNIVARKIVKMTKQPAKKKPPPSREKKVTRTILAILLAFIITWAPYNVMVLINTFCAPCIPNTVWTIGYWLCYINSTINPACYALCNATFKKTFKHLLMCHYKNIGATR", "settings": "Compound concentration 10.0 uM"}, "[6]": {"target": "Sigma non-opioid intracellular receptor 1 (Homo sapiens, UniProt Q99720)", "settings": "Compound concentration 10.0 uM"}, "[7]": {"target": "Ribosomal protein S6 kinase alpha-5 (Homo sapiens) (UniProt O75582)", "settings": "Compound concentration 1000.0 nM"}, "[8]": {"target": "Serine/threonine-protein kinase TBK1 (Homo sapiens) (UniProt Q9UHD2)", "settings": "Compound concentration 1000.0 nM"}, "[9]": {"target": "Inhibitor of nuclear factor kappa-B kinase subunit beta (Homo sapiens) (UniProt O14920)", "sequence (O14920 whole entry)": "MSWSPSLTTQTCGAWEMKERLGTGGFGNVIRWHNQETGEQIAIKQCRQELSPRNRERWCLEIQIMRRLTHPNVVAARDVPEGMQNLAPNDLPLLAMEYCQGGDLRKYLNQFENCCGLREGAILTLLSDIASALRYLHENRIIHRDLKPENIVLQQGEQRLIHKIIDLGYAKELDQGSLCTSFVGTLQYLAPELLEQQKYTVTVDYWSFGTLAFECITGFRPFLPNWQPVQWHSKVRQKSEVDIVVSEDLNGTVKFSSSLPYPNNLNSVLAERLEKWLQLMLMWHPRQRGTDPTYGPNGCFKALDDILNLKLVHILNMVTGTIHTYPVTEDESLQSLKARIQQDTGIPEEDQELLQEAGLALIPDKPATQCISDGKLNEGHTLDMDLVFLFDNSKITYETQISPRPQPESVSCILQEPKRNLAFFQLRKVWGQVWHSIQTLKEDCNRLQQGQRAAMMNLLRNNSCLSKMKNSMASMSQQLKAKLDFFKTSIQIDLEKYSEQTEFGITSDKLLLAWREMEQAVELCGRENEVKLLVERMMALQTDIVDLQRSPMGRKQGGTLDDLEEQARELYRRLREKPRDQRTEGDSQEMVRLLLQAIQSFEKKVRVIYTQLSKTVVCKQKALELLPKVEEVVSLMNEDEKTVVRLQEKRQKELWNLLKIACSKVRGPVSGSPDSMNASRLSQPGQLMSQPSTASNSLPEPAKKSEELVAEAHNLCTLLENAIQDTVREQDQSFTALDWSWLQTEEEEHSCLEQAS", "settings": "Compound concentration 1000.0 nM"}, "[10]": {"target": "Casein kinase II subunit alpha (Homo sapiens) (UniProt P68400)", "settings": "Compound concentration 1000.0 nM"}, "[11]": {"target": "Tyrosine-protein kinase receptor UFO (Homo sapiens) (UniProt P30530)", "settings": "Compound concentration 1000.0 nM"}, "[12]": {"target": "Serine/threonine-protein kinase LATS2 (Homo sapiens) (UniProt Q9NRM7)", "settings": "Compound concentration 1000.0 nM"}, "[13]": {"test_system": "ALK tyrosine kinase receptor (Homo sapiens), Q9UM73 [L1196M]", "settings": "Compound concentration 1000.0 nM"}, "[14]": {"target": "BMP-2-inducible protein kinase (Homo sapiens) (UniProt Q9NSY1)", "settings": "Compound concentration 1000.0 nM"}, "[15]": {"target": "Proto-oncogene tyrosine-protein kinase receptor Ret (Homo sapiens) (UniProt P07949)", "sequence (P07949 whole entry)": "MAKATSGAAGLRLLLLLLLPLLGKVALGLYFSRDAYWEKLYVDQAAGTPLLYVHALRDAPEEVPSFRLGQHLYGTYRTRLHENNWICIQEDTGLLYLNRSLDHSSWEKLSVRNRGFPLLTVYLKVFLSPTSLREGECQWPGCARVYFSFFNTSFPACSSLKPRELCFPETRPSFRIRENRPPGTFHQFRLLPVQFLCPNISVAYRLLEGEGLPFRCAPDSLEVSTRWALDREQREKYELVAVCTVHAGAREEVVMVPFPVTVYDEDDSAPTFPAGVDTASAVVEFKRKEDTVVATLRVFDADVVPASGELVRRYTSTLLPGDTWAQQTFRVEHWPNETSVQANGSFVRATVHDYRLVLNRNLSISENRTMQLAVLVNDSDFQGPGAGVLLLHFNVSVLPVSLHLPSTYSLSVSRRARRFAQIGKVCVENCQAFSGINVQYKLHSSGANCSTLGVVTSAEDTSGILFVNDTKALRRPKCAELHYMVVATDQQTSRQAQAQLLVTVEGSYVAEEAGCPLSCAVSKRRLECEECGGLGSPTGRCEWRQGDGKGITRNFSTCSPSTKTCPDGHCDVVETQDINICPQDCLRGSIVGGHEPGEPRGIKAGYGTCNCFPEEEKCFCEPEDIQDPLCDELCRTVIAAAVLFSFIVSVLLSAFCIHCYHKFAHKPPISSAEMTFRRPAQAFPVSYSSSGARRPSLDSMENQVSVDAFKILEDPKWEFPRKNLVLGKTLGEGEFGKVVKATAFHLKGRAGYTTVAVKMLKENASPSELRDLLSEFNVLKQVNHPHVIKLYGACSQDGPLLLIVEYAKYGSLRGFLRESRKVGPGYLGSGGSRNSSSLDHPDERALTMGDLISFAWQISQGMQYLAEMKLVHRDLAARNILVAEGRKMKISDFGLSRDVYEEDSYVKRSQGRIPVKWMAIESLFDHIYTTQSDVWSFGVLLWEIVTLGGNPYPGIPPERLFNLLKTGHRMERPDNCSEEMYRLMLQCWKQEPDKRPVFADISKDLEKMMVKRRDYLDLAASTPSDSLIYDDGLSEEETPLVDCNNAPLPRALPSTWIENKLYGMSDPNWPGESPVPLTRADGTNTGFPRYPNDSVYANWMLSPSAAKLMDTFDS", "settings": "Compound concentration 1000.0 nM"}, "[16]": {"target": "Casein kinase I isoform gamma-2 (Homo sapiens) (UniProt P78368)", "settings": "Compound concentration 1000.0 nM"}, "[17]": {"target": "Mitogen-activated protein kinase kinase kinase 12 (Homo sapiens) (UniProt Q12852)", "settings": "Compound concentration 1000.0 nM"}, "[18]": {"target": "Interleukin-1 receptor-associated kinase 3 (Homo sapiens) (UniProt Q9Y616)", "settings": "Compound concentration 1000.0 nM"}, "[19]": {"target": "Non-receptor tyrosine-protein kinase TNK1 (Homo sapiens) (UniProt Q13470)", "settings": "Compound concentration 1000.0 nM"}, "[20]": {"test_system": "Epidermal growth factor receptor (Homo sapiens), P00533 [UNDEFINED MUTATION]", "settings": "Compound concentration 1000.0 nM"}, "[21]": {"target": "Calcium/calmodulin-dependent protein kinase type 1D (Homo sapiens) (UniProt Q8IU85)", "settings": "Compound concentration 1000.0 nM"}, "[22]": {"target": "Mast/stem cell growth factor receptor Kit (Homo sapiens) (UniProt P10721)", "settings": "Compound concentration 1000.0 nM"}, "[23]": {"test_system": "Hepatocyte growth factor receptor (Homo sapiens), P08581 [M1250T]", "settings": "Compound concentration 1000.0 nM"}, "[24]": {"target": "Ephrin type-A receptor 6 (Homo sapiens) (UniProt Q9UF33)", "sequence (Q9UF33 whole entry)": "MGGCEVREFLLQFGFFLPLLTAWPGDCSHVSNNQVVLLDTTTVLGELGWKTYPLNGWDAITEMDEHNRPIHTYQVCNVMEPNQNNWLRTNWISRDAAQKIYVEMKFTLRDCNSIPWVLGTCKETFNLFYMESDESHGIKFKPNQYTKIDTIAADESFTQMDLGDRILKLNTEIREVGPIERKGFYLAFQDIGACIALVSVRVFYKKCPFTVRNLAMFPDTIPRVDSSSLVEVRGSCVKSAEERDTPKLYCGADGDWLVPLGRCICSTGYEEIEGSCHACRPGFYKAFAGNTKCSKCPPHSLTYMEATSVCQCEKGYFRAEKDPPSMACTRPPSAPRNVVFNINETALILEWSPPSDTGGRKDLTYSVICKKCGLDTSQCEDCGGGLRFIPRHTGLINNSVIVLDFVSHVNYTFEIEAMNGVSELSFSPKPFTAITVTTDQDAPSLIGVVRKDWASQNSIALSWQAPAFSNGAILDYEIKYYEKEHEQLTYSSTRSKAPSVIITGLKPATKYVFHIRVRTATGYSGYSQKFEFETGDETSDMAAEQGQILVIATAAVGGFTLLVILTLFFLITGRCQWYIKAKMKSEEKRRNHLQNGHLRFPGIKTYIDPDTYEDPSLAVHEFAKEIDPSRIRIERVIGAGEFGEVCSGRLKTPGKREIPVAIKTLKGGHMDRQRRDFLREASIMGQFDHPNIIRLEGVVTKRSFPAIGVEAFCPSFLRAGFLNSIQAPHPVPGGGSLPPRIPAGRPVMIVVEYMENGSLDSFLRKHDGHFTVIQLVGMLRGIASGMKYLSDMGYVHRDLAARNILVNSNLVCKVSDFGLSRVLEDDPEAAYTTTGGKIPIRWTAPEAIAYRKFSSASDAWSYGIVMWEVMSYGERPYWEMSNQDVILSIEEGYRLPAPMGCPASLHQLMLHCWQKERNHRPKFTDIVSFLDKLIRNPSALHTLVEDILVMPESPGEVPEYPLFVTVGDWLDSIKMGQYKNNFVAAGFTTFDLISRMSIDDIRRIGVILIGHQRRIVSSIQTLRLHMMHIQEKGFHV", "settings": "Compound concentration 1000.0 nM"}, "[25]": {"target": "Calcium/calmodulin-dependent protein kinase type 1G (Homo sapiens) (UniProt Q96NX5)", "settings": "Compound concentration 1000.0 nM"}, "[26]": {"target": "Interleukin-1 receptor-associated kinase 4 (Homo sapiens) (UniProt Q9NWZ3)", "settings": "Compound concentration 1000.0 nM"}, "[27]": {"test_system": "Mast/stem cell growth factor receptor Kit (Homo sapiens), P10721 [D816H]", "sequence (P10721 whole entry D816H)": "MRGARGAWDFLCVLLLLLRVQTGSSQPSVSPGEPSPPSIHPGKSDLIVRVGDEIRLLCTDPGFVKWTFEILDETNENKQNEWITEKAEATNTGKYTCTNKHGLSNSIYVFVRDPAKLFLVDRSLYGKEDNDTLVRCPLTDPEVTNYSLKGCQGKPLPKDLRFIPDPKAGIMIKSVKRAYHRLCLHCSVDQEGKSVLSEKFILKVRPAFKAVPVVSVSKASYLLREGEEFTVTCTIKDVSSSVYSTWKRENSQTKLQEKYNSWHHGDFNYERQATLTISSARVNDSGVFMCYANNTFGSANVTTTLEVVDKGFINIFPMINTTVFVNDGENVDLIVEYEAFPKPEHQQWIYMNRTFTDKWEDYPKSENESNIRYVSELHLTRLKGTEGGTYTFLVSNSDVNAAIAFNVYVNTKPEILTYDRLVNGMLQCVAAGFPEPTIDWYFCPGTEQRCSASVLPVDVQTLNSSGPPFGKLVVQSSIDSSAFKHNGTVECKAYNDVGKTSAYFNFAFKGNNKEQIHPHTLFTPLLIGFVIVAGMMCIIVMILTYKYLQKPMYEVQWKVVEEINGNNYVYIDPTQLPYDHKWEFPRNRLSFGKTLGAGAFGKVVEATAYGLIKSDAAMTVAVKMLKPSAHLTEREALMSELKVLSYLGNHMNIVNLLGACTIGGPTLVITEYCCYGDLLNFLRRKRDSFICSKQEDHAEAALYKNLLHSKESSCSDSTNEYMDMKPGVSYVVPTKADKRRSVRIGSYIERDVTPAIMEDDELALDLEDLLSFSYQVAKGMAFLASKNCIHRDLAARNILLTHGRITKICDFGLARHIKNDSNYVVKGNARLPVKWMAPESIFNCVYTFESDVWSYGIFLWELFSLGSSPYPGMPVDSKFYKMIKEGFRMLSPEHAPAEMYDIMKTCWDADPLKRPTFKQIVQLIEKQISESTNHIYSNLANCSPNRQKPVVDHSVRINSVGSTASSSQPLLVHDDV", "settings": "Compound concentration 1000.0 nM"}, "[28]": {"target": "D(1A) dopamine receptor (Homo sapiens) (UniProt P21728)", "settings": "Compound concentration 10.0 uM"}, "[29]": {"target": "Mitogen-activated protein kinase 7 (Homo sapiens) (UniProt Q13164)", "settings": "Compound concentration 1000.0 nM"}, "[30]": {"target": "TRAF2 and NCK-interacting protein kinase (Homo sapiens) (UniProt Q9UKE5)", "settings": "Compound concentration 1000.0 nM"}, "[31]": {"target": "Tyrosine-protein kinase CSK (Homo sapiens) (UniProt P41240)", "sequence (P41240 2-450 limits assumed)": "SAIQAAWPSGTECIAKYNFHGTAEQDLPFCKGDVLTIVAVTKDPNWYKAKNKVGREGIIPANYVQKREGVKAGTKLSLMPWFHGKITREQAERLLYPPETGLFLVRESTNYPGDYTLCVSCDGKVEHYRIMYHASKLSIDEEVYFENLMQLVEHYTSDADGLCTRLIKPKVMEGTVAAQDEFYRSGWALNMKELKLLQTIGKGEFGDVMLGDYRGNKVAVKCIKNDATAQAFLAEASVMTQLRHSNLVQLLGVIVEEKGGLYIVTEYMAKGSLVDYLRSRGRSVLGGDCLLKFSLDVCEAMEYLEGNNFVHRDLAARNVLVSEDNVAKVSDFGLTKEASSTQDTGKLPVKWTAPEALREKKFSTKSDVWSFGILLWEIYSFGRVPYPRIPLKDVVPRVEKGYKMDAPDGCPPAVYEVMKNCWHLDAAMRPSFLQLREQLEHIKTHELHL", "settings": "Compound concentration 1000.0 nM"}, "[32]": {"target": "NUAK family SNF1-like kinase 1 (Homo sapiens) (UniProt O60285)", "settings": "Compound concentration 1000.0 nM"}, "[33]": {"target": "Mitogen-activated protein kinase 11 (Homo sapiens) (UniProt Q15759)", "settings": "Compound concentration 1000.0 nM"}}}
{"smiles": "O=C(Nc1cccnn1)N1CCC(=Cc2cccc(Oc3ccc(C(F)(F)F)cn3)c2)CC1", "values": [{"measurement": "residual activity", "setting": "[1]", "result": 77, "unit": "%"}, {"measurement": "residual activity", "setting": "[2]", "result": 100, "unit": "%"}, {"measurement": "residual activity", "setting": "[3]", "result": 87, "unit": "%"}, {"measurement": "residual activity", "setting": "[4]", "result": 76, "unit": "%"}, {"measurement": "inhibition", "setting": "[5]", "result": 20.8, "unit": "%"}, {"measurement": "inhibition", "setting": "[6]", "result": 88.5, "unit": "%"}, {"measurement": "residual activity", "setting": "[7]", "result": 83, "unit": "%"}, {"measurement": "residual activity", "setting": "[8]", "result": 100, "unit": "%"}, {"measurement": "residual activity", "setting": "[9]", "result": 83, "unit": "%"}, {"measurement": "residual activity", "setting": "[10]", "result": 100, "unit": "%"}, {"measurement": "residual activity", "setting": "[11]", "result": 100, "unit": "%"}, {"measurement": "residual activity", "setting": "[12]", "result": 84, "unit": "%"}, {"measurement": "residual activity", "setting": "[13]", "result": 100, "unit": "%"}, {"measurement": "residual activity", "setting": "[14]", "result": 100, "unit": "%"}, {"measurement": "residual activity", "setting": "[15]", "result": 100, "unit": "%"}, {"measurement": "residual activity", "setting": "[16]", "result": 92, "unit": "%"}, {"measurement": "residual activity", "setting": "[17]", "result": 100, "unit": "%"}, {"measurement": "residual activity", "setting": "[18]", "result": 86, "unit": "%"}, {"measurement": "residual activity", "setting": "[19]", "result": 98, "unit": "%"}, {"measurement": "residual activity", "setting": "[20]", "result": 100, "unit": "%"}, {"measurement": "residual activity", "setting": "[21]", "result": 97, "unit": "%"}, {"measurement": "residual activity", "setting": "[22]", "result": 100, "unit": "%"}, {"measurement": "residual activity", "setting": "[23]", "result": 100, "unit": "%"}, {"measurement": "residual activity", "setting": "[24]", "result": 78, "unit": "%"}, {"measurement": "residual activity", "setting": "[25]", "result": 95, "unit": "%"}, {"measurement": "residual activity", "setting": "[26]", "result": 97, "unit": "%"}, {"measurement": "residual activity", "setting": "[27]", "result": 100, "unit": "%"}, {"measurement": "inhibition", "setting": "[28]", "result": -3.23, "unit": "%"}, {"measurement": "residual activity", "setting": "[29]", "result": 100, "unit": "%"}, {"measurement": "residual activity", "setting": "[30]", "result": 100, "unit": "%"}, {"measurement": "residual activity", "setting": "[31]", "result": 100, "unit": "%"}, {"measurement": "residual activity", "setting": "[32]", "result": 86, "unit": "%"}, {"measurement": "residual activity", "setting": "[33]", "result": 83, "unit": "%"}]}
{"smiles": "O=C(Nc1cccnn1)N1CC(C/C=C/c2cncc(Oc3ccc(C(F)(F)F)cn3)n2)C1", "values": [{"measurement": "residual activity", "setting": "[1]", "result": 100, "unit": "%"}, {"measurement": "residual activity", "setting": "[2]", "result": 98, "unit": "%"}, {"measurement": "residual activity", "setting": "[3]", "result": 100, "unit": "%"}, {"measurement": "residual activity", "setting": "[4]", "result": 100, "unit": "%"}, {"measurement": "inhibition", "setting": "[5]", "result": 20.7, "unit": "%"}, {"measurement": "inhibition", "setting": "[6]", "result": 32.2, "unit": "%"}, {"measurement": "residual activity", "setting": "[7]", "result": 100, "unit": "%"}, {"measurement": "residual activity", "setting": "[8]", "result": 72, "unit": "%"}, {"measurement": "residual activity", "setting": "[9]", "result": 94, "unit": "%"}, {"measurement": "residual activity", "setting": "[10]", "result": 72, "unit": "%"}, {"measurement": "residual activity", "setting": "[11]", "result": 100, "unit": "%"}, {"measurement": "residual activity", "setting": "[12]", "result": 100, "unit": "%"}, {"measurement": "residual activity", "setting": "[13]", "result": 82, "unit": "%"}, {"measurement": "residual activity", "setting": "[14]", "result": 100, "unit": "%"}, {"measurement": "residual activity", "setting": "[15]", "result": 100, "unit": "%"}, {"measurement": "residual activity", "setting": "[16]", "result": 100, "unit": "%"}, {"measurement": "residual activity", "setting": "[17]", "result": 83, "unit": "%"}, {"measurement": "residual activity", "setting": "[18]", "result": 100, "unit": "%"}, {"measurement": "residual activity", "setting": "[19]", "result": 100, "unit": "%"}, {"measurement": "residual activity", "setting": "[20]", "result": 95, "unit": "%"}, {"measurement": "residual activity", "setting": "[21]", "result": 100, "unit": "%"}, {"measurement": "residual activity", "setting": "[22]", "result": 78, "unit": "%"}, {"measurement": "residual activity", "setting": "[23]", "result": 100, "unit": "%"}, {"measurement": "residual activity", "setting": "[24]", "result": 100, "unit": "%"}, {"measurement": "residual activity", "setting": "[25]", "result": 100, "unit": "%"}, {"measurement": "residual activity", "setting": "[26]", "result": 100, "unit": "%"}, {"measurement": "residual activity", "setting": "[27]", "result": 74, "unit": "%"}, {"measurement": "inhibition", "setting": "[28]", "result": 1.14, "unit": "%"}, {"measurement": "residual activity", "setting": "[29]", "result": 100, "unit": "%"}, {"measurement": "residual activity", "setting": "[30]", "result": 92, "unit": "%"}, {"measurement": "residual activity", "setting": "[31]", "result": 100, "unit": "%"}, {"measurement": "residual activity", "setting": "[32]", "result": 100, "unit": "%"}, {"measurement": "residual activity", "setting": "[33]", "result": 100, "unit": "%"}]}
